The IC50 is the concentration that inhibits the measured activity by half.

We go through 30 molecules from patent US10329302B2, “Bicyclic-fused heteroaryl or aryl compounds” (Pfizer Inc., priority 2014, dated 2019).

The target of assay [1] is human IRAK4 FL (Full Length) (Homo sapiens (Human), UniProt Q9NWZ3). The experiment in a line: IRAK4 Enzymatic DELFIA Assay, Protocol A. Conditions: human IRAK4 FL, 0.6 mM ATP (KM); read-out: IRAK4 DELFIA Protocol A IC50. The assay is classed as biochemical.
For assay [2], the system named is R848-induced TNFα production by human peripheral blood mononuclear cells (PBMCs). The experiment in a line: R848 Induced TNFα in Human PBMC Assay. The class given is cell-based. The settings on record: Homo sapiens, PBMC, 3 h, read-out: R848-induced TNFa PBMC IC50 (nM).

Sequence of human IRAK4 FL (Full Length) (Q9NWZ3 whole entry): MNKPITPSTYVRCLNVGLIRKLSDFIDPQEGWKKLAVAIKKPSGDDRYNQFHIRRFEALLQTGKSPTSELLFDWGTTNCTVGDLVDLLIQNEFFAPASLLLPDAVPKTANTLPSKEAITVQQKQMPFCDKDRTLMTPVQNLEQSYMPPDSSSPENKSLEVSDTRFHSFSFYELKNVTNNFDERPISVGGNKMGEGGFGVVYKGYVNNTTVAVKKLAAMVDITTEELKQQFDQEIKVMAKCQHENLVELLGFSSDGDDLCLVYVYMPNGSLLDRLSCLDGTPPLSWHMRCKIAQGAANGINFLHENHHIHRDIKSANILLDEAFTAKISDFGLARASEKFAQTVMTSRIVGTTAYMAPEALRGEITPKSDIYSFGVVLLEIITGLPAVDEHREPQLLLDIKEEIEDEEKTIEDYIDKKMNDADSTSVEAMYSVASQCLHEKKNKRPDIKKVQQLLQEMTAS

For `COc1cc2c(OC[C@H]3C[C@@H](F)C(=O)N3)nccc2cc1C(N)=O` [Example 275, 1-{[(2R,4R)-4-fluoro-5-oxopyrrolidin-2-yl]methoxy}-7-methoxyisoquinoline-6-carboxamide], the IC50 in assay [1] was found to be 119 nM; in assay [2] it was 5140 nM.

`CC[C@@]1(F)C[C@@H](COc2nccc3cc(C(N)=O)c(OC(C)C)cc23)NC1=O` [Example 132, 1-{[(2S,4R)-4-ethyl-4-fluoro-5-oxopyrrolidin-2-yl]methoxy}-7-(propan-2-yloxy)isoquinoline-6-carboxamide]: the IC50 in assay [1] was found to be 188 nM; in assay [2], 1180 nM.

Take `COc1cc2c(OC[C@H]3NC(=O)C(F)[C@H]3C)ccc(F)c2cc1C(N)=O` (stereo in doubt) [Example 220, 8-fluoro-5-{[(2S,3S,4S)-4-fluoro-3-methyl-5-oxopyrrolidin-2-yl]methoxy}-3-methoxynaphthalene-2-carboxamide]: the values for the half-maximal inhibitory concentration (IC50) in assay [1] and in assay [2] were 0.9 nM and 14 nM, respectively.

`CC(C)Oc1cc2c(OC[C@@H]3C[C@@H](O)C(=O)N3)nccc2cc1C(N)=O` [Example 179, 1-{[(2S,4R)-4-hydroxy-5-oxopyrrolidin-2-yl]methoxy}-7-(propan-2-yloxy)isoquinoline-6-carboxamide]: the results for the IC50 in assay [1] and in assay [2] were 1.2 nM and 199 nM, respectively.

With `COC[C@H]1[C@@H](COc2nccc3cc(C(N)=O)c(OC)cc23)NC(=O)[C@@H]1F` [Example 351, 1-{[(2S,3R,4R)-4-fluoro-3-(methoxymethyl)-5-oxopyrrolidin-2-yl]methoxy}-7-methoxyisoquinoline-6-carboxamide], the half-inhibitory concentration (IC50) is 6.3 nM in assay [1] and 213 nM in assay [2].

With `Cc1nc(-c2cnc(OC[C@@H]3CCC(=O)N3)c3cc(OC(C)C)c(C(N)=O)cc23)c[nH]1` [Example 373, 4-(2-methyl-1H-imidazol-4-yl)-1-{[(2S)-5-oxopyrrolidin-2-yl]methoxy}-7-(propan-2-yloxy)isoquinoline-6-carboxamide], the IC50 in assay [1] came to 35 nM; in assay [2] it was 6160 nM.

Consider `COc1cc2c(OC[C@H]3NC(=O)[C@@H]4[C@@H](C)[C@@H]43)ncc(F)c2cc1C(N)=O` [Example 364, 4-fluoro-7-methoxy-1-{[(1S,2S,5R)-6-methyl-4-oxo-3-azabicyclo[3.1.0]hex-2-yl]methoxy}isoquinoline-6-carboxamide], for which the figures for the 50% inhibitory concentration (IC50) in assay [1] and in assay [2] were 16 nM and 145 nM, respectively.

Turning to `COc1cc2c(OC[C@H]3NC(=O)[C@](C)(F)[C@H]3C)nccc2cc1C(N)=O` [Example 237, 1-{[(2S,3S,4R)-4-fluoro-3,4-dimethyl-5-oxopyrrolidin-2-yl]methoxy}-7-methoxyisoquinoline-6-carboxamide], the half-inhibitory concentration (IC50) came to 295 nM in assay [1] and 1080 nM in assay [2].

Turning to `CC[C@@]1(F)C[C@@H](COc2ccnc3cc(C(N)=O)c(OC)cc23)NC1=O` [Example 260, 4-{[(2S,4R)-4-ethyl-4-fluoro-5-oxopyrrolidin-2-yl]methoxy}-6-methoxyquinoline-7-carboxamide], the values for the concentration for half-maximal inhibition (IC50) in assay [1] and in assay [2] were 202 nM and 6280 nM, respectively.

Regarding `CC(C)Oc1cc2c(OC[C@H]3NC(=O)C(F)(F)[C@H]3C)nccc2cc1C(N)=O` [Example 183, 1-{[(2S,3S)-4,4-difluoro-3-methyl-5-oxopyrrolidin-2-yl]methoxy}-7-(propan-2-yloxy)isoquinoline-6-carboxamide], the IC50 in assay [1] came to 0.2 nM; in assay [2], 10 nM.

Turning to `C=C=COc1cc2c(OC[C@@H]3CCC(=O)N3)nccc2cc1C(N)=O` [Example 319, 1-{[(2S)-5-oxopyrrolidin-2-yl]methoxy}-7-(propadienyloxy)isoquinoline-6-carboxamide], the results for the IC50 in assay [1] and in assay [2] were 1950 nM and 11000 nM, respectively.

`CCOc1cc2c(OC[C@H]3NC(=O)[C@@H](F)[C@H]3CC)nccc2cc1C(N)=O` [Example 359, 7-ethoxy-1-{[(2S,3S,4S)-3-ethyl-4-fluoro-5-oxopyrrolidin-2-yl]methoxy}isoquinoline-6-carboxamide]: the IC50 in assay [1] was determined as 0.4 nM; in assay [2], 3.9 nM.

Take `COc1cc2c(OC[C@H]3NC(=O)O[C@H]3C)nccc2cc1C(N)=O` [Example 236, 7-methoxy-1-{[(4R,5S)-5-methyl-2-oxo-1,3-oxazolidin-4-yl]methoxy}isoquinoline-6-carboxamide]: the figures for the IC50 in assay [1] and in assay [2] were 8.4 nM and 125 nM, respectively.

In the case of `CC[C@H]1C[C@@H](COc2nccc3cc(C(N)=O)c(OC(C)C)cc23)NC1=O` [Example 135, 1-{[(2S,4S)-4-ethyl-5-oxopyrrolidin-2-yl]methoxy}-7-(propan-2-yloxy)isoquinoline-6-carboxamide], the IC50 in assay [1] amounted to 1.2 nM; in assay [2], 32 nM.

On to `COc1cc2c(OC[C@@H]3C[C@@H](CC(F)(F)F)C(=O)N3)nccc2cc1C(N)=O` [Example 267, 7-methoxy-1-{[(2S,4S)-5-oxo-4-(2,2,2-trifluoroethyl)pyrrolidin-2-yl]methoxy}isoquinoline-6-carboxamide], for which the IC50 turned out to be 15 nM in assay [1] and 158 nM in assay [2].

For the molecule `COc1cc2c(OC[C@H]3NC(=O)[C@@H]4[C@@H](CO)[C@@H]43)nccc2cc1C(N)=O` [Example 327, 1-{[(1S,2S,5S)-6-(hydroxymethyl)-4-oxo-3-azabicyclo[3.1.0]hex-2-yl]methoxy}-7-methoxyisoquinoline-6-carboxamide], the IC50 in assay [1] was determined as 20 nM; in assay [2], 3310 nM.

With `COc1cc2c(OC[C@H]3NC(=O)[C@H]4[C@@H]3[C@]4(C)F)nccc2cc1C(N)=O` [Example 335, 1-{[(1S,2S,5R)-6-fluoro-6-methyl-4-oxo-3-azabicyclo[3.1.0]hex-2-yl]methoxy}-7-methoxyisoquinoline-6-carboxamide], the half-maximal inhibitory concentration (IC50) in assay [1] is 4 nM; in assay [2] it was 746 nM.

In the case of `CC(C)Oc1cc2c(OC[C@H]3NC(=O)C[C@@H]3C)nccc2cc1C(N)=O` [Example 141, 1-{[(2S,3S)-3-methyl-5-oxopyrrolidin-2-yl]methoxy}-7-(propan-2-yloxy)isoquinoline-6-carboxamide], the IC50 in assay [1] was 70 nM; in assay [2], 294 nM.

Regarding `COc1cc2c(OC[C@@H]3CC(Cc4ccccc4)C(=O)N3)nccc2cc1C(N)=O` (stereo partly drawn) [Example 258, 1-{[(2S)-4-benzyl-5-oxopyrrolidin-2-yl]methoxy}-7-methoxyisoquinoline-6-carboxamide], the IC50 in assay [1] was determined as 141 nM; in assay [2], 2930 nM.

Consider `CC(C)Oc1cc2c(OC[C@@H]3C[C@@H](C)C(=O)N3)nccc2cc1C(N)=O` [Example 124, 1-{[(2S,4R)-4-methyl-5-oxopyrrolidin-2-yl]methoxy}-7-(propan-2-yloxy)isoquinoline-6-carboxamide], for which the half-maximal inhibitory concentration (IC50) in assay [1] stood at 7.8 nM; in assay [2], 175 nM.

In the case of `COc1cc2c(OC[C@H]3NC(=O)C[C@H]3CCF)nccc2cc1C(N)=O` [Example 355, 1-{[(2S,3S)-3-(2-fluoroethyl)-5-oxopyrrolidin-2-yl]methoxy}-7-methoxyisoquinoline-6-carboxamide], the IC50 in assay [1] was 1.7 nM; in assay [2], 33 nM.

As for `CC(C)Oc1cc2c(OC[C@@H]3C[C@](C)(F)C(=O)N3)ccnc2cc1C(N)=O` [Example 269, 4-{[(2S,4S)-4-fluoro-4-methyl-5-oxopyrrolidin-2-yl]methoxy}-6-(propan-2-yloxy)quinoline-7-carboxamide], the IC50 in assay [1] was found to be 0.6 nM; in assay [2] it was 104 nM.

Take `COc1cc2c(OC[C@H]3NC(=O)[C@H](OC)[C@H]3C)nccc2cc1C(N)=O` [Example 350, 7-methoxy-1-{[(2S,3S,4R)-4-methoxy-3-methyl-5-oxopyrrolidin-2-yl]methoxy}isoquinoline-6-carboxamide]: the IC50 in assay [1] turned out to be 58 nM; in assay [2], 568 nM.

Turning to `COc1cc2c(OC[C@@H]3C[C@H](C)C(=O)N3)nccc2cc1C(N)=O` [Example 242, 7-methoxy-1-{[(2S,4S)-4-methyl-5-oxopyrrolidin-2-yl]methoxy}isoquinoline-6-carboxamide], the IC50 in assay [1] is 263 nM; in assay [2], 7250 nM.

Turning to `CC[C@H]1[C@@H](COc2nccc3cc(C(N)=O)c(OC)cc23)NC(=O)[C@@H]1OC` [Example 343, 1-{[(2S,3S,4R)-3-ethyl-4-methoxy-5-oxopyrrolidin-2-yl]methoxy}-7-methoxyisoquinoline-6-carboxamide], the half-inhibitory concentration (IC50) in assay [1] is 41 nM; in assay [2], 408 nM.

Take `COc1cc2c(OC[C@H]3CNC(=O)O3)nccc2cc1C(N)=O` [Example 235, 7-methoxy-1-{[(5R)-2-oxo-1,3-oxazolidin-5-yl]methoxy}isoquinoline-6-carboxamide]: the half-inhibitory concentration (IC50) was 97 nM in assay [1] and 1090 nM in assay [2].

Turning to `COc1cc2c(OC[C@@H]3CCC(=O)N3)cncc2cc1C(N)=O` [Example 206, 6-methoxy-4-{[(2S)-5-oxopyrrolidin-2-yl]methoxy}isoquinoline-7-carboxamide], the IC50 in assay [1] turned out to be 216 nM; in assay [2], 4570 nM.

As for `COc1cc2c(OC[C@H]3NC(=O)[C@H]4[C@@H]3C4(Cl)Cl)nccc2cc1C(N)=O` [Example 311, 1-{[(1S,2S,5R)-6,6-dichloro-4-oxo-3-azabicyclo[3.1.0]hex-2-yl]methoxy}-7-methoxyisoquinoline-6-carboxamide], the half-inhibitory concentration (IC50) in assay [1] stood at 229 nM; in assay [2], 1080 nM.

As to `COC[C@@H]1[C@H]2C(=O)N[C@H](COc3nccc4cc(C(N)=O)c(OC)cc34)[C@@H]12` [Example 313, 7-methoxy-1-{[(1S,2S,5S)-6-(methoxymethyl)-4-oxo-3-azabicyclo[3.1.0]hex-2-yl]methoxy}isoquinoline-6-carboxamide], the figures for the IC50 in assay [1] and in assay [2] were 210 nM and 1590 nM, respectively.

For the molecule `CC(C)Oc1cc2c(OC[C@@H]3CCC(=O)N3)nccc2cc1C#N` [Example 03, 1-{[(2S)-5-oxopyrrolidin-2-yl]methoxy}-7-(propan-2-yloxy)isoquinoline-6-carbonitrile], the half-inhibitory concentration (IC50) turned out to be 575 nM in assay [1] and 2740 nM in assay [2].
